We go through 10 molecules from paper PMC7307906, “Macrocyclic Modalities Combining Peptide Epitopes and Natural Product Fragments” (Journal of the American Chemical Society, 2020).

In one assay the target is T1, human MC5R (Homo sapiens, UniProt P33032).
T1 construct: expressed in transfected cells; host or cells: HEK293-6E suspension cells, transient expression; membranes
The assay is described as follows: Melanocortin receptor radioligand binding (SPA, [125I]-NDP-α-MSH displacement), MC5R. The following applies: competitive binding, [125I]-NDP-α-MSH; mean (± SEM) of at least three independent experiments; read-out: IC50 hMC5R binding.

For assay [1], the target named is T2, human MC3R (Homo sapiens, UniProt P41968).
T2 construct: expressed in transfected cells
T2 sequence (P41968 whole entry): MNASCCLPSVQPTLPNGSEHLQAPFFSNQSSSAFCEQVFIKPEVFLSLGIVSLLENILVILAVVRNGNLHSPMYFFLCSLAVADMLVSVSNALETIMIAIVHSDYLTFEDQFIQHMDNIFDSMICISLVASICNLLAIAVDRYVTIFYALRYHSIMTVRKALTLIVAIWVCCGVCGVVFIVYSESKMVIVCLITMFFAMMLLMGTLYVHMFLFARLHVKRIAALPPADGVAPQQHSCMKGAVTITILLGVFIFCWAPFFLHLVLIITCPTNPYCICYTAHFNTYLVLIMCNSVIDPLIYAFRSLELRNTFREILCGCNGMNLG
As to the kind of experiment: Melanocortin receptor radioligand binding (SPA, [125I]-NDP-α-MSH displacement), MC3R. The conditions noted are these: competitive binding, mean (± SEM) of at least three independent experiments, read-out: IC50 hMC3R binding.

Assay [2] deals with T3, human MC4R (Homo sapiens, UniProt P32245).
T3 construct: expressed in transfected cells
T3 sequence (P32245 whole entry): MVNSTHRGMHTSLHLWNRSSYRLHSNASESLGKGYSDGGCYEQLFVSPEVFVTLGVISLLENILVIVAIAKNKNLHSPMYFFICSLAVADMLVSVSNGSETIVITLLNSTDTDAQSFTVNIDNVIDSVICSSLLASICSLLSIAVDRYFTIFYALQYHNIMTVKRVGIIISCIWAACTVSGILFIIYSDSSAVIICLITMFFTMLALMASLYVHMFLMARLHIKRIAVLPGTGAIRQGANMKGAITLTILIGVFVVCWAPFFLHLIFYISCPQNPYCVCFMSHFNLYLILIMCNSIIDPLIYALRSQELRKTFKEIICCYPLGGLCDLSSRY
The assay is described as follows: Melanocortin receptor radioligand binding (SPA, [125I]-NDP-α-MSH displacement), MC4R. The conditions noted are these: competitive binding, mean (± SEM) of at least three independent experiments, read-out: IC50 hMC4R binding.

For assay [3], the target named is T4, human MC1R (Homo sapiens, UniProt Q01726).
T4 construct: expressed in transfected cells
T4 sequence (Q01726 whole entry): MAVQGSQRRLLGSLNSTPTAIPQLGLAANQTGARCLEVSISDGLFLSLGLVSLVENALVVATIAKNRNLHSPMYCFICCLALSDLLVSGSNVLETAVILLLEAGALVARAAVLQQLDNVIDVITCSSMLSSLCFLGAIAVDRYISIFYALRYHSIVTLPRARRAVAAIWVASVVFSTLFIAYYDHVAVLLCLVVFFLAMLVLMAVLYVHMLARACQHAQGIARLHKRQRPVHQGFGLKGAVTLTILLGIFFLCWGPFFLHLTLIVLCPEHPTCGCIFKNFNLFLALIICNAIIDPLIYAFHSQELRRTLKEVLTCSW
The assay is described as follows: Melanocortin receptor radioligand binding (SPA, [125I]-NDP-α-MSH displacement), MC1R. The following applies: competitive binding, mean (± SEM) of at least three independent experiments, read-out: IC50 hMC1R binding.

In assay [4] the target is T2, human MC3R. As to the kind of experiment: cAMP assay (LANCE) in T-Rex-293 cells expressing MC3R. The assay is classed as cell-based. The conditions noted are these: cAMP assay; mean (± SEM) of at least three independent experiments; read-out: EC50 hMC3R cAMP. On the technique in general: Changes in cAMP serve as a functional read-out for many G protein-coupled receptors.

The target in assay [5] is T3, human MC4R. As to the kind of experiment: cAMP assay (LANCE) in T-Rex-293 cells expressing MC4R. The assay is classed as cell-based. The conditions noted are these: cAMP assay; mean (± SEM) of at least three independent experiments; read-out: EC50 hMC4R cAMP.
In assay [6] the target is T4, human MC1R. The assay is described as follows: cAMP assay (LANCE) in T-Rex-293 cells expressing MC1R. The assay is classed as cell-based.
The next assay concerns the target T5, SPSB2 (Homo sapiens, UniProt Q99619).
T5 chain: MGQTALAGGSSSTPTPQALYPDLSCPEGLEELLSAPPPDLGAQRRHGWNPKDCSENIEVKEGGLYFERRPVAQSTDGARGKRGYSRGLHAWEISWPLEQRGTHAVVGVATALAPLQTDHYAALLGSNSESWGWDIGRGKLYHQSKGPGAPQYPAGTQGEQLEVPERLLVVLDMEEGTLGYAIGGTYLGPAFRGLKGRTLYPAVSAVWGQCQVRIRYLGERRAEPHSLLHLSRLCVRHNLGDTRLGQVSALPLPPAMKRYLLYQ
The assay is described as follows: SPR.

Where a SMILES comes first, the peptide text is derived from it. Where no end group is shown, it is not given here. [ ]: non-standard residue; d: D form. N‑methyl fused di‑pyrrolidine (I) = not defined here; phenylmethanamine linker (IX) = not defined here; pyrrolidine (IV) = not defined here; NMeF = CN[C@@H](Cc1ccccc1)C(=O)O; NMeL = CN[C@@H](CC(C)C)C(=O)O; NMeV = CN[C@H](C(=O)O)C(C)C

T1 sequence (P33032 whole entry): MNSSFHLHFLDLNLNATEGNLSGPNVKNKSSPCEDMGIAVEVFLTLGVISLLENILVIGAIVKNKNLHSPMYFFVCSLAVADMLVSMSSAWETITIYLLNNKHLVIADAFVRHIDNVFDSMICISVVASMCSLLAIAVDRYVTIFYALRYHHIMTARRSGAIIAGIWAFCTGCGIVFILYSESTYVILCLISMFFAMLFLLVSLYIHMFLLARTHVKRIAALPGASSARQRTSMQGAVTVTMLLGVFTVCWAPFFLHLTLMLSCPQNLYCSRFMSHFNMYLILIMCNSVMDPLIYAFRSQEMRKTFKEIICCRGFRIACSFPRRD

Take `CN1C(=O)[C@@H]2[C@H](C1=O)[C@H]1N[C@@H]2C(=O)N(C)[C@@H](Cc2ccccc2)C(=O)N[C@@H](CCCNC(=N)N)C(=O)N[C@H](Cc2ccccc2)C(=O)N[C@H](Cc2ccccc2)C(=O)N[C@H](C(=O)N[C@@H](Cc2ccc(O)cc2)C(N)=O)CCCCNC(=O)c2ccc1cc2` [O1-minor, [I-FRffK ]Y]: the half-maximal inhibitory concentration (IC50) (usually the point on the concentration scale where inhibition reaches its midpoint) was over 10000 nM at human MC5R, over 10 µM on human MC3R [1], over 10 µM on human MC4R [2] and over 10000 nM at human MC1R [3]. The EC50 (commonly the concentration that produces a half-maximal response) at human MC3R [4] was over 10 µM; at human MC4R [5], over 10 µM; on human MC1R [6] (cAMP assay, mean (± SEM) of at least three independent experiments, read-out: EC50 hMC1R cAMP), over 10 µM. In addition, the “% Effect hMC1R cAMP at 10 µM” value on human MC1R [6] (% effect at 10 µM, compounds not reaching an upper plateau (#)) is reported as 21%.

With `C[C@@H]1NC(=O)[C@H](CC(N)=O)NC(=O)[C@@H](Cc2ccccc2)NC(=O)[C@@H](Cc2ccccc2)NC(=O)[C@H](CCCNC(=N)N)NC(=O)[C@@H](NC(=O)[C@@H](N)Cc2ccc(O)cc2)CSSC[C@@H](C(=O)N[C@@H](Cc2ccc(O)cc2)C(N)=O)NC(=O)[C@H](Cc2ccccc2)NC1=O` [compound 29, Y[CRffNAFC]Y, reference compound] (HELM PEPTIDE1{Y.C.R.[dF].[dF].N.A.F.C.Y.[am]}$PEPTIDE1,PEPTIDE1,2:R3-9:R3$$$V2.0), the IC50 came to 2500 ± 300 nM on human MC5R, 9.5 ± 0.9 µM on human MC3R [1], 7.1 ± 0.5 µM at human MC4R [2] and 2500 ± 500 nM on human MC1R [3]. Further, the EC50 at human MC3R [4] and on human MC4R [5] was over 100 µM each time. Moreover, at human MC1R [6] (T-REx-293, read-out: % Effect hMC1R cAMP), the Emax is 84%. On human MC1R [6] (cAMP assay, hMC1R), the “agonistic activity at MC1R (in words)” value is “selective and almost full agonistic activity”.

B1: PepNat D13-minor (peptide)
chain: [NMeV]DINNNKG-NH2
modifications: bridge (positions not given here) via N‑methyl fused di‑pyrrolidine (I); reading uncertain; also: macrocycle via N-methyl fused di-pyrrolidine (I), minor diastereomer
With B1, the affinity with SPSB2, expressed as Kd, was 78 nM.

B2: PepNat D1-major (peptide)
chain: [NMeF]DINNNKG-NH2
modifications: bridge (positions not given here) via N‑methyl fused di‑pyrrolidine (I); reading uncertain; also: macrocycle via N-methyl fused di-pyrrolidine (I)
Take B2: binding in the assay with SPSB2 was put at a Kd of 33 nM.

B3: macrocycle 27 (peptide)
chain: [NMeF]DINNNK
modifications: linker (positions not given here) via phenylmethanamine linker (IX); reading uncertain; also: cyclized via phenylmethanamine linker (IX), attachment points not given here
As for B3, the affinity in the assay with SPSB2, expressed as Kd, was 87 nM.

B4: PepNat D13-major (peptide)
chain: [NMeV]DINNNKG-NH2
modifications: bridge (positions not given here) via N‑methyl fused di‑pyrrolidine (I); reading uncertain; also: macrocycle via N-methyl fused di-pyrrolidine (I)
Regarding B4, the Kd (in general, a measure of binding affinity in units of concentration) with SPSB2 was found to be 15 nM.

Ac-KEEKDINNNVKKT [iNOS peptide 22]: the dissociation constant (Kd) with SPSB2 is 7.1 nM.

Regarding VDINNNKG (macrocycle via N-phenyl fused di-pyrrolidine (II), N-Me-Val) [PepNat D18-major], the Kd with SPSB2 worked out at 2.2 nM.

B5: PepNat D12-minor (peptide)
chain: [NMeL]DINNNKG-NH2
modifications: bridge (positions not given here) via N‑methyl fused di‑pyrrolidine (I); reading uncertain; also: macrocycle via N-methyl fused di-pyrrolidine (I), minor diastereomer
B5 displayed a Kd with SPSB2 of 127 nM.

B6: PepNat D4-major (peptide)
chain: [NMeF]DINNNKG-NH2
modifications: bridge (positions not given here) via pyrrolidine (IV); reading uncertain; also: macrocycle via pyrrolidine (IV)
Regarding B6, the Kd in the assay with SPSB2 came to 18 nM.
